Measured values as given in PubChem BioAssay (NCI).
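How tested: cells in 96-well plates exposed to compound for 48 hours at five concentrations. Here, GI50 denotes the concentration required for 50% inhibition of growth. Definition used: TGI = concentration required for complete inhibition of growth.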

What was measured:
Experiment in all cases: inhibition of tumour cell growth, NCI panel, 48 h
[1] = tested on: 786-0 renal
[2] = tested on: A498 renal
[3] = tested on: A549 NSCLC
[4] = tested on: ACHN renal
[5] = tested on: BT-549 breast
[6] = tested on: CAKI-1 renal
[7] = tested on: CCRF-CEM leukemia
[8] = tested on: COLO 205 colon
[9] = tested on: DU-145 prostate
[10] = tested on: EKVX NSCLC
[11] = tested on: HCC-2998 colon
[12] = tested on: HCT-116 colon
[13] = tested on: HCT-15 colon
[14] = tested on: HL-60(TB) leukemia
[15] = tested on: HOP-62 NSCLC
[16] = tested on: HOP-92 NSCLC
[17] = tested on: HS 578T breast
[18] = tested on: HT29 colon
[19] = tested on: IGROV1 ovarian
[20] = tested on: K-562 leukemia
[21] = tested on: KM12 colon
[22] = tested on: LOX IMVI melanoma
[23] = tested on: M14 melanoma
[24] = tested on: MALME-3M melanoma
[25] = tested on: MCF7 breast
[26] = tested on: MDA-MB-231 breast
[27] = tested on: MDA-MB-435
[28] = tested on: MOLT-4 leukemia
[29] = tested on: NCI-H226 lung
[30] = tested on: NCI-H23 lung
[31] = tested on: NCI-H460 lung
[32] = tested on: NCI-H522 lung
[33] = tested on: NCI/ADR-RES ovarian
[34] = tested on: OVCAR-3 ovarian
[35] = tested on: OVCAR-4 ovarian
[36] = tested on: OVCAR-5 ovarian
[37] = tested on: OVCAR-8 ovarian
[38] = tested on: PC-3 prostate
[39] = tested on: RPMI-8226 leukemia
[40] = tested on: RXF 393 renal
[41] = tested on: SF-268 CNS
[42] = tested on: SF-295 CNS
[43] = tested on: SF-539 CNS
[44] = tested on: SK-MEL-2 melanoma
[45] = tested on: SK-MEL-28 melanoma
[46] = tested on: SK-MEL-5 melanoma
[47] = tested on: SK-OV-3 ovarian
[48] = tested on: SN12C renal
[49] = tested on: SNB-19 CNS
[50] = tested on: SNB-75 CNS
[51] = tested on: SR leukemia
[52] = tested on: SW-620 colon
[53] = tested on: T-47D breast
[54] = tested on: TK-10 renal
[55] = tested on: U251 CNS
[56] = tested on: UACC-257 melanoma
[57] = tested on: UACC-62 melanoma
[58] = tested on: UO-31 renal

Oc1ccc(Cc2ccccc2)c2cccnc12
GI50 [1]: 2.04 µM | TGI [1]: 6.57 µM | GI50 [2]: 25.6 µM | TGI [2]: > 100 µM | GI50 [3]: 4.21 µM | TGI [3]: 71.9 µM | GI50 [4]: 1.21 µM | TGI [4]: 9.53 µM | GI50 [5]: 2.33 µM | TGI [5]: 26.7 µM | GI50 [6]: 2.22 µM | TGI [6]: 8.96 µM | GI50 [7]: 0.423 µM | TGI [7]: 5.44 µM | GI50 [8]: 7.74 µM | TGI [8]: > 100 µM | GI50 [9]: 2.58 µM | TGI [9]: > 100 µM | GI50 [10]: 2.32 µM | TGI [10]: > 100 µM | GI50 [11]: 3.65 µM | TGI [11]: 16.6 µM | GI50 [12]: 1.79 µM | TGI [12]: 21.5 µM | GI50 [13]: 0.507 µM | TGI [13]: 44.9 µM | GI50 [14]: 1.56 µM | TGI [14]: 6.65 µM | GI50 [15]: 2.03 µM | TGI [15]: 80.6 µM | GI50 [16]: 1.02 µM | TGI [16]: 39.6 µM | GI50 [17]: > 100 µM | TGI [17]: > 100 µM | GI50 [18]: 22.5 µM | TGI [18]: > 100 µM | GI50 [19]: 2.2 µM | TGI [19]: 32.8 µM | GI50 [20]: 0.836 µM | TGI [20]: > 100 µM | GI50 [21]: 2.07 µM | TGI [21]: 27 µM | GI50 [22]: 1.53 µM | TGI [22]: 19 µM | GI50 [23]: 1.51 µM | TGI [23]: 10.6 µM | GI50 [24]: 2.96 µM | TGI [24]: 31.6 µM | GI50 [25]: 7.46 µM | TGI [25]: > 100 µM | GI50 [26]: 4.36 µM | TGI [26]: 27.4 µM | GI50 [27]: 1.83 µM | TGI [27]: > 100 µM | GI50 [28]: 1.41 µM | TGI [28]: 93.8 µM | GI50 [29]: 13.8 µM | TGI [29]: 67.5 µM | GI50 [30]: 2.9 µM | TGI [30]: 57.1 µM | GI50 [31]: 1.61 µM | TGI [31]: 17.3 µM | GI50 [32]: 3.69 µM | TGI [32]: 76 µM | GI50 [33]: 0.49 µM | TGI [33]: 13.3 µM | GI50 [34]: 6.7 µM | TGI [34]: 37.6 µM | GI50 [35]: 6.35 µM | TGI [35]: > 100 µM | GI50 [36]: 4.73 µM | TGI [36]: > 100 µM | GI50 [37]: 2.35 µM | TGI [37]: > 100 µM | GI50 [38]: 2.7 µM | TGI [38]: 67.4 µM | GI50 [39]: 1.46 µM | TGI [39]: > 100 µM | GI50 [40]: 2.3 µM | TGI [40]: 19.2 µM | GI50 [41]: 2.18 µM | TGI [41]: 86.8 µM | GI50 [42]: 1.34 µM | TGI [42]: 20.5 µM | GI50 [43]: 1.66 µM | TGI [43]: 19.2 µM | GI50 [44]: 12.7 µM | TGI [44]: 70.6 µM | GI50 [45]: 10.3 µM | TGI [45]: > 100 µM | GI50 [46]: 1.52 µM | TGI [46]: 10.8 µM | GI50 [47]: 3.43 µM | TGI [47]: > 100 µM | GI50 [48]: 2.61 µM | TGI [48]: > 100 µM | GI50 [49]: 3.08 µM | TGI [49]: > 100 µM | GI50 [50]: 14.7 µM | TGI [50]: > 100 µM | GI50 [51]: 0.673 µM | TGI [51]: > 100 µM | GI50 [52]: 3.39 µM | TGI [52]: 54.8 µM | GI50 [53]: 3.6 µM | TGI [53]: > 100 µM | GI50 [54]: 2.81 µM | TGI [54]: > 100 µM | GI50 [55]: 0.999 µM | TGI [55]: 37.7 µM | GI50 [56]: 4.06 µM | TGI [56]: > 100 µM | GI50 [57]: 2.32 µM | TGI [57]: 6.04 µM | GI50 [58]: 0.628 µM | TGI [58]: 9.34 µM
